We go through 14 molecules from patent US20250333407A1, “Compounds and Their Use for Treatment of Hemoglobinopathies” (Bristol-Myers Squibb Company, priority 2024, published 2025).

What all share (assay type): cell-based
One assay has as its target T1, WIZ (Homo sapiens, UniProt O95785+Q96SW2).
T1 construct: HUDEP-2 cells engineered to express a HiBiT tag in either the WIZ (Widely interspaced zinc finger) or ZBTB7A
Description: HUDEP-2 WIZ HiBiT degradation assay. To be noted: HiBiT-tagged WIZ degradation in HUDEP-2 cells, 24 hours of treatment; read-out: WIZ EC50. Put shortly:
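HiBiT-tagged HUDEP-2 cells at 1.0×10^6 cells/ml in SFEM II with SCF, EPO, dexamethasone and doxycycline, treated 24 h at 37 °C with a 10-point series ([…]). Luminescence after HiBiT lytic detection, normalized to DMSO; EC50 and Y-min from fitted curves.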

For a further assay, the target named is T2, ZBTB7A (Homo sapiens, UniProt O95365+Q96SW2).
T2 construct: HUDEP-2 cells engineered to express a HiBiT tag in either the WIZ (Widely interspaced zinc finger) or ZBTB7A
Briefly: HUDEP-2 ZBTB7A HiBiT degradation assay. Particulars: HiBiT-tagged ZBTB7A degradation in HUDEP-2 cells, 24 hours of treatment; read-out: ZBTB7A EC50. Summed up: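 HiBiT-tagged HUDEP-2 cells were pre-cultured 48 h in IMDM with EPO, SCF, doxycycline and 5% human plasma, then exposed to compounds at 1.0×10^6 cells/ml for 24 h at 37 °C. Nano-Glo HiBiT lytic luminescence, normalised to DMSO over 10 concentrations, gave EC50 and Y-min.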
For orientation: The HiBiT peptide binds its large partner to form an active luciferase.

In a further assay the test system is HbF. Briefly: HbF HiBiT induction assay in HUDEP-2 cells. To be noted: HUDEP-2 cells with HiBiT tag in HBG1/2, 72 hours of treatment; area under the dose response curve, higher AUC = greater HbF induction. Summed up:
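HUDEP-2 cells carrying a HiBiT tag on HBG1/2 were exposed to compounds for 72 h at 37° C, 5% CO2, in IMDM with EPO, hSCF, DOX, transferrin, insulin, heparin and 5% human plasma. HiBiT luminescence was read after lytic detection; HbF induction is expressed as dose-response AUC, alongside EC50 and Ymax.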

T2 sequence (O95365 whole entry): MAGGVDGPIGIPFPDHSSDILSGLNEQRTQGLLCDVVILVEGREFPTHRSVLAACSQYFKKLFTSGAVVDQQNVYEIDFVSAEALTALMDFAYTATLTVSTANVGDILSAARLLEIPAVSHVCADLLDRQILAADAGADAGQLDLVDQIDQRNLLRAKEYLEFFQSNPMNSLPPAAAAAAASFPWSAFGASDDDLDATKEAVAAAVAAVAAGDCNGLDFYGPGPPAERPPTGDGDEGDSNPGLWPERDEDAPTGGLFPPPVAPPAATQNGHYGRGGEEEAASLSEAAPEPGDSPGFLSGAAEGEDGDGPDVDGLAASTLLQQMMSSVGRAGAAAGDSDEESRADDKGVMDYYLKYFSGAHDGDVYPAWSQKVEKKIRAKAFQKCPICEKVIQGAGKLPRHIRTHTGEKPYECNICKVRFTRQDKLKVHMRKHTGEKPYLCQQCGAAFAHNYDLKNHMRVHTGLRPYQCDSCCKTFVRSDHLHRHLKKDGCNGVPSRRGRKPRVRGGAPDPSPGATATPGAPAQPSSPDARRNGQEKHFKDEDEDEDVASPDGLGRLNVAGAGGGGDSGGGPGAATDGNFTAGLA
T2 sequence (Q96SW2 whole entry): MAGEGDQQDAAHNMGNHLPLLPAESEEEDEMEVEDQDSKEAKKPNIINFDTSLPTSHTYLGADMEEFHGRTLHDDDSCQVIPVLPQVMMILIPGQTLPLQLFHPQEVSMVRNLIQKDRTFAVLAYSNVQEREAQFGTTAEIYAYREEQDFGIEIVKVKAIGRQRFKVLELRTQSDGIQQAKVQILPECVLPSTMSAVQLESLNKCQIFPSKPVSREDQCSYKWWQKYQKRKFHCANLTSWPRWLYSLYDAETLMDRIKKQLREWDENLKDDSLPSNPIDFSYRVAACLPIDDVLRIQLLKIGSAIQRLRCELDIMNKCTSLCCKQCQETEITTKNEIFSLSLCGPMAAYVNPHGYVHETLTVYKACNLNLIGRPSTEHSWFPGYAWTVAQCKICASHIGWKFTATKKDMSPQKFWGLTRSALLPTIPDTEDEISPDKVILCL
T2 sequence (Q16531 whole entry partner): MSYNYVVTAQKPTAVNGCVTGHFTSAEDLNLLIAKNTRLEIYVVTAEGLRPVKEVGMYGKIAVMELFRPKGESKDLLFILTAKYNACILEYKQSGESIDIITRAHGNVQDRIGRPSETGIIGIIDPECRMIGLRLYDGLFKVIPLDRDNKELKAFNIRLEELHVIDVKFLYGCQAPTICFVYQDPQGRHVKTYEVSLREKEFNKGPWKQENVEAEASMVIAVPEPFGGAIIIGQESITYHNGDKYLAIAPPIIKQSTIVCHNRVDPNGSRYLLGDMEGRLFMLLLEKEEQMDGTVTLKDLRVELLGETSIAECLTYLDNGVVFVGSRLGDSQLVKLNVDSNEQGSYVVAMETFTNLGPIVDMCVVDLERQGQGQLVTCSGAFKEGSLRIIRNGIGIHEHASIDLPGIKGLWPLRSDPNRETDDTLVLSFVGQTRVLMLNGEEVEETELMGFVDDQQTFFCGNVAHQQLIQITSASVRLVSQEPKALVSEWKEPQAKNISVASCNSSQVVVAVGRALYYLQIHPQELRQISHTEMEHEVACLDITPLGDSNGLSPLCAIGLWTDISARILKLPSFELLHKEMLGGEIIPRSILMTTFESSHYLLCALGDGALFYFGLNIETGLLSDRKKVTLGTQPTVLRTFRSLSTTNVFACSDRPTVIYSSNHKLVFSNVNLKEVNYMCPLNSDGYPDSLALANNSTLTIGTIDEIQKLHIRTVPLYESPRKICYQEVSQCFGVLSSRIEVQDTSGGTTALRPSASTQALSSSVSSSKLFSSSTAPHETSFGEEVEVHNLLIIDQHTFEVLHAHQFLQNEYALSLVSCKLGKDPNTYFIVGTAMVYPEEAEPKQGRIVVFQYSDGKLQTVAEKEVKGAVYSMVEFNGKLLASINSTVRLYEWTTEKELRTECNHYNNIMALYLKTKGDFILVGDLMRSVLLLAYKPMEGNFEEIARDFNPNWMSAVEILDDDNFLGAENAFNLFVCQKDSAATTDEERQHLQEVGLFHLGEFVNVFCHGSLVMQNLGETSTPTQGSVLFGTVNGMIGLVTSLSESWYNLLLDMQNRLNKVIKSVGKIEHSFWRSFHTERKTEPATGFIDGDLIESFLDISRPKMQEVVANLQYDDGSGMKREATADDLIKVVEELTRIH
T1 sequence (O95785 whole entry): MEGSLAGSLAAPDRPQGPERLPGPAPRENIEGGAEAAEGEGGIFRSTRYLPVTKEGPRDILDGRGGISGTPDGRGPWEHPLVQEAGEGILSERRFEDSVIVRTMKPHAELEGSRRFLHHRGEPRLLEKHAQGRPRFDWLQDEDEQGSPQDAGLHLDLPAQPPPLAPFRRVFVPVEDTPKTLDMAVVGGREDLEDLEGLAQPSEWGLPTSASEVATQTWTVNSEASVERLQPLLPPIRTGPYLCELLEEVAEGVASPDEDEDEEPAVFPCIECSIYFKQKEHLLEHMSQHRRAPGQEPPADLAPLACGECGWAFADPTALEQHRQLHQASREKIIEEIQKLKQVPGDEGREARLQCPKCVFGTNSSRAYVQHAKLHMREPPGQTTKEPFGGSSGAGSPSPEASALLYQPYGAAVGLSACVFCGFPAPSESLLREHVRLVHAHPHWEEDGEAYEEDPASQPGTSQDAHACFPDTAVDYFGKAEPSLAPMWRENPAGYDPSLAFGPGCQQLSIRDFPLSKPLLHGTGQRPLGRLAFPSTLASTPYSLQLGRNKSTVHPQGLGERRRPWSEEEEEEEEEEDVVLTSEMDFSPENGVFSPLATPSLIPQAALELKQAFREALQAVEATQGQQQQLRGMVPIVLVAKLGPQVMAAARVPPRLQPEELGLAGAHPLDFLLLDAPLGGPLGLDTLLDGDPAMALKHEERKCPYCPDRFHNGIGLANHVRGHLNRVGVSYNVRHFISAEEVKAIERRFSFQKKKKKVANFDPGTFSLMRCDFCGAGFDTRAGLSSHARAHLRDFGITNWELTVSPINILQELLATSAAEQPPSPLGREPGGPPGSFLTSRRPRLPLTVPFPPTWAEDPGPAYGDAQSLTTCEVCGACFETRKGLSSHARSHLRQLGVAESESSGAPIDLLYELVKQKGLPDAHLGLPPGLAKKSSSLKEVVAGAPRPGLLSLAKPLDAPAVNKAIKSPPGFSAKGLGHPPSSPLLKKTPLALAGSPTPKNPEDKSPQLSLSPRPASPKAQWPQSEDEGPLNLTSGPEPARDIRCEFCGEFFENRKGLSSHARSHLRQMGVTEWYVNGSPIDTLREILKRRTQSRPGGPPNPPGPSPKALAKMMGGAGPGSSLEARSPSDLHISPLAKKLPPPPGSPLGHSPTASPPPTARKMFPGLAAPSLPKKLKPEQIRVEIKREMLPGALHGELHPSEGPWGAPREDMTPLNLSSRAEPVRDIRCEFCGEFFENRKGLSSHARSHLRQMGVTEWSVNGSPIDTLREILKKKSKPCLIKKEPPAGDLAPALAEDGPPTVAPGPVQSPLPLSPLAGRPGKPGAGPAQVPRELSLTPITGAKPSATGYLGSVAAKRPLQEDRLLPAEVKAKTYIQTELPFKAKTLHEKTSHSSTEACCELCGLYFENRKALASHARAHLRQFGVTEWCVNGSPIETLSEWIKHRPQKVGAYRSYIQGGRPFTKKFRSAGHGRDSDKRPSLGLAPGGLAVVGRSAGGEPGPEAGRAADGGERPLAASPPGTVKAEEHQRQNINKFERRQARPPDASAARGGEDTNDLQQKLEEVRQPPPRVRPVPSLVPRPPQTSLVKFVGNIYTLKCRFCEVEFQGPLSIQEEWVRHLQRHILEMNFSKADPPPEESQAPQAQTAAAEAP
T1 sequence (Q96SW2 whole entry): as the sequence (Q96SW2 whole entry) above
T1 sequence (Q16531 whole entry partner): as the sequence (Q16531 whole entry partner) above

As for `Cc1cc(-c2cc3c(cc2Nc2cccc4c2C(=O)N([C@H]2CCC(=O)NC2=O)C4=O)N(C)C(=O)[C@@H](C)O3)cc(C(F)F)n1` [Compound 49, 4-(((R)-7-(2-(difluoromethyl)-6-methylpyridin-4-yl)-2,4-dimethyl-3-oxo-3,4-dihydro-2H-benzo[b][1,4]oxazin-6-yl)amino)-2-((S)-2,6-dioxopiperidin-3-yl)isoindoline-1,3-dione], the figures for the DC50 at WIZ and at ZBTB7A were 39 nM and 71 nM, respectively. In addition, in the assay with HbF, the “HBF AUC” value is given as “++ (++ = 100 ≤ AUC < 150)”.
The like results for `Cc1cc(-c2cc3c(cc2Nc2cccc4c2C(=O)N(C2CCC(=O)NC2=O)C4=O)N(C)S(=O)(=O)CC3)ccn1` (stereo not drawn) [Compound 50, 2-(2,6-dioxopiperidin-3-yl)-4-((1-methyl-6-(2-methylpyridin-4-yl)-2,2-dioxido-3,4-dihydro-1H-benzo[c][1,2]thiazin-7-yl)amino)isoindoline-1,3-dione] were, in that order, 18 nM, 28 nM and “+ (+ = 15 ≤ AUC < 100)”.
With `COc1ncc(-c2cc3c(cc2Nc2cccc4c2C(=O)N(C2CCC(=O)NC2=O)C4=O)N(C)C(=O)CO3)cc1F` (stereo not drawn) [Compound 51, 2-(2,6-dioxopiperidin-3-yl)-4-((7-(5-fluoro-6-methoxypyridin-3-yl)-4-methyl-3-oxo-3,4-dihydro-2H-benzo[b][1,4]oxazin-6-yl)amino)isoindoline-1,3-dione], the DC50 came out at 37 nM at WIZ and 30 nM at ZBTB7A. The “HBF AUC” value with HbF is given as “++ (++ = 100 ≤ AUC < 150)”.
The like results for `CCOc1cc(-c2cc3c(cc2Nc2cccc4c2C(=O)N(C2CCC(=O)NC2=O)C4=O)N(C)C(=O)CO3)ccn1` (stereo not drawn) [Compound 52, 2-(2,6-dioxopiperidin-3-yl)-4-((7-(2-ethoxypyridin-4-yl)-4-methyl-3-oxo-3,4-dihydro-2H-benzo[b][1,4]oxazin-6-yl)amino)isoindoline-1,3-dione] were, in that order, 12 nM, 143 nM and “+ (+ = 15 ≤ AUC < 100)”.
The like results for `CN1C(=O)COc2cc([C@H]3CC[C@H](C#N)CC3)c(Nc3cccc4c3C(=O)N(C3CCC(=O)NC3=O)C4=O)cc21` (stereo partly drawn) [Compound 53, (1r,4r)-4-(6-((2-(2,6-dioxopiperidin-3-yl)-1,3-dioxoisoindolin-4-yl)amino)-4-methyl-3-oxo-3,4-dihydro-2H-benzo[b][1,4]oxazin-7-yl)cyclohexane-1-carbonitrile] were, in that order, 4 nM, 10 nM and “++ (++ = 100 ≤ AUC < 150)”.
Regarding `CCO[C@H]1CC[C@H](c2cc3c(cc2Nc2cccc4c2C(=O)N([C@@H]2CCC(=O)NC2=O)C4=O)N(C)C(=O)[C@@H](C)O3)CC1` [Compound 54, 2-((R)-2,6-dioxopiperidin-3-yl)-4-(((R)-7-((1r,4R)-4-ethoxycyclohexyl)-2,4-dimethyl-3-oxo-3,4-dihydro-2H-benzo[b][1,4]oxazin-6-yl)amino)isoindoline-1,3-dione], the DC50 is 8 nM on WIZ and 14 nM on ZBTB7A. The “HBF AUC” value in the assay on HbF is reported as “++ (++ = 100 ≤ AUC < 150)”.
The like results for `CCO[C@H]1CC[C@H](c2cc3c(cc2Nc2cccc4c2C(=O)N([C@@H]2CCC(=O)NC2=O)C4=O)N(C)C(=O)[C@H](C)O3)CC1` [Compound 55, 2-((R)-2,6-dioxopiperidin-3-yl)-4-(((S)-7-((1r,4S)-4-ethoxycyclohexyl)-2,4-dimethyl-3-oxo-3,4-dihydro-2H-benzo[b][1,4]oxazin-6-yl)amino)isoindoline-1,3-dione] were, in that order, 6 nM, 9 nM and “++ (++ = 100 ≤ AUC < 150)”.
The like results for `CCN1C(=O)COc2cc(-c3cc(C)nc(C)c3)c(Nc3cccc4c3C(=O)N(C3CCC(=O)NC3=O)C4=O)cc21` (stereo not drawn) [Compound 56, 4-((7-(2,6-dimethylpyridin-4-yl)-4-ethyl-3-oxo-3,4-dihydro-2H-benzo[b][1,4]oxazin-6-yl)amino)-2-(2,6-dioxopiperidin-3-yl)isoindoline-1,3-dione] were, in that order, 20 nM, 43 nM and “++ (++ = 100 ≤ AUC < 150)”.
In the case of `Cc1cc(-c2cc3c(cc2Nc2cccc4c2C(=O)N(C2CCC(=O)NC2=O)C4=O)N(C)C(=O)CO3)cc(C2CC2)n1` (stereo not drawn) [Compound 57, 4-((7-(2-cyclopropyl-6-methylpyridin-4-yl)-4-methyl-3-oxo-3,4-dihydro-2H-benzo[b][1,4]oxazin-6-yl)amino)-2-(2,6-dioxopiperidin-3-yl)isoindoline-1,3-dione], the DC50 worked out at 18 nM at WIZ and 54 nM on ZBTB7A. Moreover, the “HBF AUC” value in the assay on HbF is reported as “+++ (+++ = AUC ≥ 150)”.
The like results for `Cc1cc(-c2cc3c(cc2Nc2cccc4c2C(=O)N([C@@H]2CCC(=O)NC2=O)C4=O)N(C)C(=O)CO3)c(F)cn1` [Compound 58, (R)-2-(2,6-dioxopiperidin-3-yl)-4-((7-(5-fluoro-2-methylpyridin-4-yl)-4-methyl-3-oxo-3,4-dihydro-2H-benzo[b][1,4]oxazin-6-yl)amino)isoindoline-1,3-dione] were, in that order, 9 nM, 10 nM and “++ (++ = 100 ≤ AUC < 150)”.
The like results for `Cc1cc(-c2cc3c(cc2Nc2cccc4c2C(=O)N([C@@H]2CCC(=O)NC2=O)C4=O)N(C)C(=O)CO3)ccn1` [Compound 59, (R)-2-(2,6-dioxopiperidin-3-yl)-4-((4-methyl-7-(2-methylpyridin-4-yl)-3-oxo-3,4-dihydro-2H-benzo[b][1,4]oxazin-6-yl)amino)isoindoline-1,3-dione] were, in that order, 8 nM, 10 nM and “+++ (+++ = AUC ≥ 150)”.
The like results for `CNc1cc(-c2cc3c(cc2Nc2cccc4c2C(=O)N(C2CCC(=O)NC2=O)C4=O)N(C)C(=O)CO3)c(F)cn1` (stereo not drawn) [Compound 60, 2-(2,6-dioxopiperidin-3-yl)-4-((7-(5-fluoro-2-(methylamino)pyridin-4-yl)-4-methyl-3-oxo-3,4-dihydro-2H-benzo[b][1,4]oxazin-6-yl)amino)isoindoline-1,3-dione] were, in that order, 9 nM, 11 nM and “+++ (+++ = AUC ≥ 150)”.
For the molecule `Cc1cc(-c2cc3c(cc2Nc2cccc4c2C(=O)N([C@H]2CCC(=O)NC2=O)C4=O)N(C)C(=O)CO3)c(F)cn1` [Compound 61, (S)-2-(2,6-dioxopiperidin-3-yl)-4-((7-(5-fluoro-2-methylpyridin-4-yl)-4-methyl-3-oxo-3,4-dihydro-2H-benzo[b][1,4]oxazin-6-yl)amino)isoindoline-1,3-dione], the DC50 at WIZ is 7 nM; at ZBTB7A it was 11 nM. The “HBF AUC” value in the assay with HbF was “++ (++ = 100 ≤ AUC < 150)”.
The matching figures for `Cc1cc(-c2cc3c(cc2Nc2cccc4c2C(=O)N(C2CCC(=O)NC2=O)C4=O)N(C)C(=O)OC3)cc(C)n1` (stereo not drawn) [Compound 62, 4-((6-(2,6-dimethylpyridin-4-yl)-1-methyl-2-oxo-1,4-dihydro-2H-benzo[d][1,3]oxazin-7-yl)amino)-2-(2,6-dioxopiperidin-3-yl)isoindoline-1,3-dione]: 17 nM, 19 nM and “++ (++ = 100 ≤ AUC < 150)”.
